Data published in ChEMBL document CHEMBL1795227, “Methanesulfonamido-cyclohexylamine derivatives of 2,4-diaminopyrimidine as potent ALK inhibitors” (Bioorg Med Chem Lett, 2011).

How the values were obtained:
[1] = target: Fibroblast growth factor receptor 1 (Homo sapiens) (UniProt P11362); experiment: Inhibition of FGFR1 at 1 uM
[2] = target: Tyrosine-protein kinase ITK/TSK (Homo sapiens) (UniProt Q08881); experiment: Inhibition of ITK at 1 uM
[3] = target: Mitogen-activated protein kinase 11 (Homo sapiens) (UniProt Q15759); experiment: Inhibition of p38 beta at 1 uM
[4] = target: Serine/threonine-protein kinase PLK1 (Homo sapiens) (UniProt P53350); experiment: Inhibition of PLK1 at 1 uM
[5] = target: Aurora kinase A (Homo sapiens) (UniProt O14965); experiment: Inhibition of AURKA at 1 uM
[6] = target: T1, ALK tyrosine kinase receptor (Homo sapiens, UniProt Q9UM73); experiment: Inhibition of autophosphorylation of NPM-ALK in human Karpas-299 cells; format: cell-based
Target sequence in this assay (Q9UM73 19-1620 limits assumed): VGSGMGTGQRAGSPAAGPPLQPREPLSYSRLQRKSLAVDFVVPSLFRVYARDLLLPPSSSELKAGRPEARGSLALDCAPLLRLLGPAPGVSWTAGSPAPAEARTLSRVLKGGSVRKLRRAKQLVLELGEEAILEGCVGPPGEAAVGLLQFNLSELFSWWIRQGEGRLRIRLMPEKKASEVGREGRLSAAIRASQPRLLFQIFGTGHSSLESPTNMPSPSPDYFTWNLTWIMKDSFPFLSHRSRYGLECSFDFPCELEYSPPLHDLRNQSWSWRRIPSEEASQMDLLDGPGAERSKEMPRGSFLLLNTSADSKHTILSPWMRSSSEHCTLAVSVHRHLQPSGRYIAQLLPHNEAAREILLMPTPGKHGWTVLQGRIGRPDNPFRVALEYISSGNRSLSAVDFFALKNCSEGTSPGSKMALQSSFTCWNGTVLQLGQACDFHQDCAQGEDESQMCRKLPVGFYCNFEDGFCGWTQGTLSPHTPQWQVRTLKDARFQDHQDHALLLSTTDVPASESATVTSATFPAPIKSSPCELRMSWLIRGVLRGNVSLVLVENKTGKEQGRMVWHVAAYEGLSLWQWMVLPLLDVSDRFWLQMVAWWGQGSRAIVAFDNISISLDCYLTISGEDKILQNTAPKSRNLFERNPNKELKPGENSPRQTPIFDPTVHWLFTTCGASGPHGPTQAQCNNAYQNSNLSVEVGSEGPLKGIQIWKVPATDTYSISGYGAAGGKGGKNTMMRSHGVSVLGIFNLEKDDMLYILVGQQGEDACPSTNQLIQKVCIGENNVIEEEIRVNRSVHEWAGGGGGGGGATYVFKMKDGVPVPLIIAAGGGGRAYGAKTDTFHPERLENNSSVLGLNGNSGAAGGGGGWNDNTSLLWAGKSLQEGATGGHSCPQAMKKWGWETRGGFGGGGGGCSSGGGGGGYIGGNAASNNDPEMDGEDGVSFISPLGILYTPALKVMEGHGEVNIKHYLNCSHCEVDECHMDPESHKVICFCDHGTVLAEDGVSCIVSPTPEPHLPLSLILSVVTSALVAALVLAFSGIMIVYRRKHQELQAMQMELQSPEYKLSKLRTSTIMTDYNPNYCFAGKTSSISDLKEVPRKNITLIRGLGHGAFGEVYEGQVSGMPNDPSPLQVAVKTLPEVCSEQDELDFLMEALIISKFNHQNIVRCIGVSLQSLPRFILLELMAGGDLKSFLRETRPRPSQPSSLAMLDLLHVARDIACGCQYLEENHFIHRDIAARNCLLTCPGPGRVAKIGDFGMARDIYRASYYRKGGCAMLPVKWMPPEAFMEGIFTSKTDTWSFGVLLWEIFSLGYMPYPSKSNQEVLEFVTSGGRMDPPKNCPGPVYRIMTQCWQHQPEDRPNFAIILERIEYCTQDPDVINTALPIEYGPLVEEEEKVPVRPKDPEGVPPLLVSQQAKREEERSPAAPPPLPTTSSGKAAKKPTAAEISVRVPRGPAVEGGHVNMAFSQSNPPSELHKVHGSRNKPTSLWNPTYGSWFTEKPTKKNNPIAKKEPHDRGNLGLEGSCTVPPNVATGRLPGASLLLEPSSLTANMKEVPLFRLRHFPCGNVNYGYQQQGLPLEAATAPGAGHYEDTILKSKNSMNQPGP

[7] = target: Mitogen-activated protein kinase 1 (Homo sapiens) (UniProt P28482); experiment: Inhibition of ERK2 at 1 uM
[8] = target: RAC-alpha serine/threonine-protein kinase (Homo sapiens) (UniProt P31749); experiment: Inhibition of AKT1 at 1 uM
[9] = target: RAC-gamma serine/threonine-protein kinase (Homo sapiens) (UniProt Q9Y243); experiment: Inhibition of AKT3 at 1 uM
[10] = target: Protein kinase C eta type (Homo sapiens) (UniProt P24723); experiment: Inhibition of PRKCH at 1 uM
[11] = target: RAF proto-oncogene serine/threonine-protein kinase (Homo sapiens) (UniProt P04049); experiment: Inhibition of RAF1 at 1 uM
[12] = target: Mitogen-activated protein kinase 8 (Homo sapiens) (UniProt P45983); experiment: Inhibition of JNK1 at 1 uM
[13] = target: Mitogen-activated protein kinase 9 (Homo sapiens) (UniProt P45984); experiment: Inhibition of JNK2 at 1 uM
[14] = target: 3-phosphoinositide-dependent protein kinase 1 (Homo sapiens) (UniProt O15530); experiment: Inhibition of PDPK1 at 1 uM
[15] = target: Cyclin-dependent kinase 2 (Homo sapiens) (UniProt P24941); experiment: Inhibition of CDK2 at 1 uM
[16] = target: Tyrosine-protein kinase receptor UFO (Homo sapiens) (UniProt P30530); experiment: Inhibition of AXL at 1 uM
[17] = target: Platelet-derived growth factor receptor alpha (Homo sapiens) (UniProt P16234); experiment: Inhibition of PDGFRalpha at 1 uM
[18] = target: Serine/threonine-protein kinase pim-2 (Homo sapiens) (UniProt Q9P1W9); experiment: Inhibition of PIM2 at 1 uM
[19] = target: High affinity nerve growth factor receptor (Homo sapiens) (UniProt P04629); experiment: Inhibition of TRKA at 1 uM
[20] = target: Tyrosine-protein kinase Lck (Homo sapiens) (UniProt P06239); experiment: Inhibition of LCK at 1 uM
[21] = target: RAC-beta serine/threonine-protein kinase (Homo sapiens) (UniProt P31751); experiment: Inhibition of AKT2 at 1 uM
[22] = target: TGF-beta receptor type-1 (Homo sapiens) (UniProt P36897); experiment: Inhibition of TGFBR1 at 1 uM
[23] = target: Proto-oncogene tyrosine-protein kinase Src (Homo sapiens) (UniProt P12931); experiment: Inhibition of SRC at 1 uM
[24] = target: Tyrosine-protein kinase ABL1 (Homo sapiens) (UniProt P00519); experiment: Inhibition of ABL1 at 1 uM
[25] = target: T1, ALK tyrosine kinase receptor; experiment: Inhibition of ALK
[26] = target: Insulin-like growth factor 1 receptor (Homo sapiens) (UniProt P08069); experiment: Inhibition of IGF1R at 1 uM
[27] = target: Serine/threonine-protein kinase PAK 4 (Homo sapiens) (UniProt O96013); experiment: Inhibition of PAK4 at 1 uM
[28] = target: Serine/threonine-protein kinase B-raf (Homo sapiens) (UniProt P15056); experiment: Inhibition of BRAF at 1 uM
[29] = target: Fibroblast growth factor receptor 2 (Homo sapiens) (UniProt P21802); experiment: Inhibition of FGFR2 at 1 uM
[30] = target: Tyrosine-protein kinase BTK (Homo sapiens) (UniProt Q06187); experiment: Inhibition of BTK at 1 uM
[31] = test system: Mast/stem cell growth factor receptor Kit (Homo sapiens), P10721 [D816V]; details: 1 uM
Description: Inhibition of KIT D816V at 1 uM

[32] = test system: Tyrosine-protein kinase ABL1 (Homo sapiens), P00519 [T315I]; experiment: Inhibition of ABL1 T315I at 1 uM
[33] = target: Receptor tyrosine-protein kinase erbB-2 (Homo sapiens) (UniProt P04626); experiment: Inhibition of ERBB2 at 1 uM
[34] = target: Mast/stem cell growth factor receptor Kit (Homo sapiens) (UniProt P10721); experiment: Inhibition of KIT at 1 uM
[35] = target: T1, ALK tyrosine kinase receptor; details: 1 uM
Target sequence in this assay (Q9UM73 19-1620 limits assumed): as above
Description: Inhibition of ALK at 1 uM

[36] = target: Vascular endothelial growth factor receptor 2 (Homo sapiens) (UniProt P35968); experiment: Inhibition of VEGFR2 at 1 uM
[37] = target: Tyrosine-protein kinase ZAP-70 (Homo sapiens) (UniProt P43403); experiment: Inhibition of ZAP70 at 1 uM
[38] = target: Serine/threonine-protein kinase STK11 (Homo sapiens) (UniProt Q15831); experiment: Inhibition of LKB1 at 1 uM
[39] = target: Non-receptor tyrosine-protein kinase TYK2 (Homo sapiens) (UniProt P29597); experiment: Inhibition of TYK2 domain 2 at 1 uM
[40] = target: Angiopoietin-1 receptor (Homo sapiens) (UniProt Q02763); experiment: Inhibition of Tie2 at 1 uM
[41] = target: Glycogen synthase kinase-3 alpha (Homo sapiens) (UniProt P49840); experiment: Inhibition of GSK3A at 1 uM
[42] = test system: Serine/threonine-protein kinase B-raf (Homo sapiens), P15056 [V600E]; experiment: Inhibition of BRAF V600E at 1 uM
[43] = target: Tyrosine-protein kinase JAK2 (Homo sapiens) (UniProt O60674); experiment: Inhibition of JAK2 domain 2 at 1 uM
[44] = target: Proto-oncogene tyrosine-protein kinase receptor Ret (Homo sapiens) (UniProt P07949); experiment: Inhibition of RET at 1 uM
[45] = target: Tyrosine-protein kinase SYK (Homo sapiens) (UniProt P43405); experiment: Inhibition of SYK at 1 uM
[46] = target: Fibroblast growth factor receptor 4 (Homo sapiens) (UniProt P22455); details: 1 uM
Description: Inhibition of FGFR4 at 1 uM

[47] = target: Mitogen-activated protein kinase 12 (Homo sapiens) (UniProt P53778); experiment: Inhibition of p38 gamma at 1 uM
Insulin receptor = Insulin receptor (Homo sapiens, UniProt P06213); experiment: Inhibition of IR
[48] = target: Aurora kinase B (Homo sapiens) (UniProt Q96GD4); experiment: Inhibition of AURKB at 1 uM

Sequence of Tyrosine-protein kinase BTK (Homo sapiens) (Q06187 whole entry): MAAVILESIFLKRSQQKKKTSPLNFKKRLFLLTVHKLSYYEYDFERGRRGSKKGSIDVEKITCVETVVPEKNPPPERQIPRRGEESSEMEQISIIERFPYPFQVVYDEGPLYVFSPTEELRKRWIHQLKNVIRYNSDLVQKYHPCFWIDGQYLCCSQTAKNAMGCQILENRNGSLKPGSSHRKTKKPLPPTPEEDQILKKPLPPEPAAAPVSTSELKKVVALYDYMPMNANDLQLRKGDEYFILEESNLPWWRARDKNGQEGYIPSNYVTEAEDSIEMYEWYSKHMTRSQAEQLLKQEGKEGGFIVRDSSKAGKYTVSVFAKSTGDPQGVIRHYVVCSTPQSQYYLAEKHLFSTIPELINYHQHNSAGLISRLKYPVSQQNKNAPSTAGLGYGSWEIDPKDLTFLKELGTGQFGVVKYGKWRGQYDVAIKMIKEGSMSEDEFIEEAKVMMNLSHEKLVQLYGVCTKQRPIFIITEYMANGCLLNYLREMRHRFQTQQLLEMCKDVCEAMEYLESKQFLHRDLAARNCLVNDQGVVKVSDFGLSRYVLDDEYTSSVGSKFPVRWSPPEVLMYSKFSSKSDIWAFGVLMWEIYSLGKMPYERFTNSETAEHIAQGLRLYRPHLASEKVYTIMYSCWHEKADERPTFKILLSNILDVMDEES
Sequence of 3-phosphoinositide-dependent protein kinase 1 (Homo sapiens) (O15530 whole entry): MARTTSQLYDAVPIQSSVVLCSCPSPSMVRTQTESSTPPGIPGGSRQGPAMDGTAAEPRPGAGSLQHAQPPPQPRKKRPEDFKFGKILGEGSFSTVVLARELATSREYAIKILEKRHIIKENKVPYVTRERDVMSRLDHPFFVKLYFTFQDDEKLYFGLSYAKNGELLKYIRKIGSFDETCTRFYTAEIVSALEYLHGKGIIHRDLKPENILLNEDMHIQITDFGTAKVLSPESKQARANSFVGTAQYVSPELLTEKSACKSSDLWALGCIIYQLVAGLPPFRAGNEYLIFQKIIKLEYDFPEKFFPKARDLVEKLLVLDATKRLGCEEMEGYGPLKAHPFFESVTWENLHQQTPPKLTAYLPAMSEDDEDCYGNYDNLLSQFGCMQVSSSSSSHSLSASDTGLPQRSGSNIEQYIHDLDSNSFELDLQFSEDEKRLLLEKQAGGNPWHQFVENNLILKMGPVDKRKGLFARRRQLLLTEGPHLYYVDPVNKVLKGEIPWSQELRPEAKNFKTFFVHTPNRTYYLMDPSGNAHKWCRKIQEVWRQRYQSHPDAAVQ
Sequence of Mitogen-activated protein kinase 9 (Homo sapiens) (P45984 whole entry, looked up): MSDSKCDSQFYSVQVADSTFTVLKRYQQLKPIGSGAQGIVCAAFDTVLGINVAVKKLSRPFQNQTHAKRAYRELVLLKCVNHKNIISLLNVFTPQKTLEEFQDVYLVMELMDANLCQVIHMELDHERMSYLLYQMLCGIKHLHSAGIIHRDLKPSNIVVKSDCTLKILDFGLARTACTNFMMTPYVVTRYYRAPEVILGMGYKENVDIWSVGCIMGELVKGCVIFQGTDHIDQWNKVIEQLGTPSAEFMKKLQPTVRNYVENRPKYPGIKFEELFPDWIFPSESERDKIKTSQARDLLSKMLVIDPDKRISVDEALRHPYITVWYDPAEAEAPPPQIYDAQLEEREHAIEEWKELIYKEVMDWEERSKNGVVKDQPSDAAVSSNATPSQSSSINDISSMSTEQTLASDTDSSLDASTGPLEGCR
Sequence of Serine/threonine-protein kinase B-raf (Homo sapiens) (P15056 whole entry): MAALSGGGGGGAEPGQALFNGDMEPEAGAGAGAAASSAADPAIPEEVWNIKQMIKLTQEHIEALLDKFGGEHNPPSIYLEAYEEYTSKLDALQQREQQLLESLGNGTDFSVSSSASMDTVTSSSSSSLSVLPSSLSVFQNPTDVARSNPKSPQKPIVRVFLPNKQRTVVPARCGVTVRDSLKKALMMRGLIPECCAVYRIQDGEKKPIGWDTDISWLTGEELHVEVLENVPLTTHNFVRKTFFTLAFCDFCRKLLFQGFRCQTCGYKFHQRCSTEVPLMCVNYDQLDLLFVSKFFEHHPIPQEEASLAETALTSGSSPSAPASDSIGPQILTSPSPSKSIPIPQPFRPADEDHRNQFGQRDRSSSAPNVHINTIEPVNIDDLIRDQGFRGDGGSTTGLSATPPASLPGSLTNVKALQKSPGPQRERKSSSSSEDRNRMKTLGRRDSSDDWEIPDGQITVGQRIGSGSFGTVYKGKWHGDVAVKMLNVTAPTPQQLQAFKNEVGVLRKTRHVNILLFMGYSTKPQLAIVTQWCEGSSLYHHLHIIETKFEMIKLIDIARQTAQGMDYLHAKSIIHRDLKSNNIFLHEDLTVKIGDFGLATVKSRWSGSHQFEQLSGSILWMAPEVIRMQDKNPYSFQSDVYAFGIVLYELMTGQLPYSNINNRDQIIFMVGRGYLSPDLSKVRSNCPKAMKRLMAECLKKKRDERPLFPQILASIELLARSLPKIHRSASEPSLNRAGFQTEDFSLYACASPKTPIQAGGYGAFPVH
Sequence of Glycogen synthase kinase-3 alpha (Homo sapiens) (P49840 2-483 limits assumed): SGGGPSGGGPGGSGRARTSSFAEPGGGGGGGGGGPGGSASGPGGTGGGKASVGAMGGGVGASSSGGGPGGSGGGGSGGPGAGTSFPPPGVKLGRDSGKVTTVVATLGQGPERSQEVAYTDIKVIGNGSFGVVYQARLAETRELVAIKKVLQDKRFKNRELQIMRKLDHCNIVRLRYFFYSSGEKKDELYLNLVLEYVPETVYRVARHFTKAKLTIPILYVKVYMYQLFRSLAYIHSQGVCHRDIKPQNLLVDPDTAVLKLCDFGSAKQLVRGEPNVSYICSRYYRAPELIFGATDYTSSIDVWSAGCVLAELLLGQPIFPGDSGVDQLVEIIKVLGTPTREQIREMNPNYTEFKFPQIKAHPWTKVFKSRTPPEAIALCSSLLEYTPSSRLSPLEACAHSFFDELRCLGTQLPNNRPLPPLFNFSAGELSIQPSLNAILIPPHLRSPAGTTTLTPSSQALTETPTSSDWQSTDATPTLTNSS
Sequence of Mitogen-activated protein kinase 8 (Homo sapiens) (P45983 whole entry): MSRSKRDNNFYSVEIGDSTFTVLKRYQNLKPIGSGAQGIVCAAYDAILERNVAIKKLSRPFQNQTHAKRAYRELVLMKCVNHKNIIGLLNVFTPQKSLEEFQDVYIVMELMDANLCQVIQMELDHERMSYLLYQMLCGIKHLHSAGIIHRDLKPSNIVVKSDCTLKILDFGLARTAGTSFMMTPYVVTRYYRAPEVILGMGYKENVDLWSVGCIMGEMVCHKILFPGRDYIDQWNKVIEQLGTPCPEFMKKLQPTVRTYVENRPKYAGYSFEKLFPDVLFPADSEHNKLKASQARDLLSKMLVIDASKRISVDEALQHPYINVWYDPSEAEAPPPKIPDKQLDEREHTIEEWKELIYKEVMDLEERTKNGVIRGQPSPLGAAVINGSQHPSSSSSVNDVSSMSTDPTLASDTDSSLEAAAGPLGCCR
Sequence of Serine/threonine-protein kinase B-raf (Homo sapiens), P15056 [V600E] (P15056 whole entry V600E, the tested form may be a part): as the sequence (P15056 whole entry) above, with V600E counted along it

## COCCN1CCc2cc(Nc3ncc(Cl)c(N[C@@H]4CCCC[C@H]4NS(C)(=O)=O)n3)c(OC)cc2CC1
[1]
  inhibition: 86%
[2]
  inhibition: < 65%
[3]
  inhibition: < 65%
[4]
  inhibition: 94%
[5]
  inhibition: < 65%
[6]
  IC50: 65 nM
[7]
  inhibition: < 65%
[8]
  inhibition: < 65%
[9]
  inhibition: < 65%
[10]
  inhibition: < 65%
[11]
  inhibition: < 65%
[12]
  inhibition: < 65%
[13]
  inhibition: < 65%
[14]
  inhibition: < 65%
[15]
  inhibition: < 65%
[16]
  inhibition: < 65%
[17]
  inhibition: < 65%
[18]
  inhibition: < 65%
[19]
  inhibition: < 65%
[20]
  inhibition: < 65%
[21]
  inhibition: < 65%
[22]
  inhibition: < 65%
[23]
  inhibition: < 65%
[24]
  inhibition: < 65%
[25]
  IC50: 6 nM
[26]
  inhibition: < 65%
[27]
  inhibition: < 65%
[28]
  inhibition: < 65%
[29]
  inhibition: < 65%
[30]
  inhibition: < 65%
[31]
  inhibition: 97%
[32]
  inhibition: < 65%
[33]
  inhibition: < 65%
[34]
  inhibition: < 65%
[35]
  inhibition: 97%
[36]
  inhibition: < 65%
[37]
  inhibition: < 65%
[38]
  inhibition: < 65%
[39]
  inhibition: < 65%
[40]
  inhibition: < 65%
[41]
  inhibition: < 65%
[42]
  inhibition: < 65%
[43]
  inhibition: < 65%
[44]
  inhibition: < 65%
[45]
  inhibition: < 65%
[46]
  inhibition: < 65%
[47]
  inhibition: < 65%
Insulin receptor
  IC50: 1400 nM
[48]
  inhibition: < 65%

## COCCN1CCc2cc(Nc3ncc(Cl)c(N[C@@H]4CCCC[C@H]4N(C)S(C)(=O)=O)n3)c(OC)cc2CC1
[1]
  inhibition: 100%
[2]
  inhibition: < 65%
[3]
  inhibition: < 65%
[4]
  inhibition: 96%
[5]
  inhibition: < 65%
[6]
  IC50: 15 nM
[7]
  inhibition: < 65%
[8]
  inhibition: < 65%
[9]
  inhibition: < 65%
[10]
  inhibition: 79%
[11]
  inhibition: < 65%
[12]
  inhibition: 97%
[13]
  inhibition: < 65%
[14]
  inhibition: < 65%
[15]
  inhibition: < 65%
[16]
  inhibition: < 65%
[17]
  inhibition: < 65%
[18]
  inhibition: < 65%
[19]
  inhibition: < 65%
[20]
  inhibition: < 65%
[21]
  inhibition: < 65%
[22]
  inhibition: < 65%
[23]
  inhibition: < 65%
[24]
  inhibition: < 65%
[25]
  IC50: 3 nM
[26]
  inhibition: 73%
[27]
  inhibition: < 65%
[28]
  inhibition: < 65%
[29]
  inhibition: 99%
[30]
  inhibition: < 65%
[31]
  inhibition: 100%
[32]
  inhibition: < 65%
[33]
  inhibition: < 65%
[34]
  inhibition: 96%
[35]
  inhibition: 100%
[36]
  inhibition: < 65%
[37]
  inhibition: < 65%
[38]
  inhibition: 94%
[39]
  inhibition: < 65%
[40]
  inhibition: < 65%
[41]
  inhibition: < 65%
[42]
  inhibition: < 65%
[43]
  inhibition: < 65%
[44]
  inhibition: < 65%
[45]
  inhibition: < 65%
[46]
  inhibition: 100%
[47]
  inhibition: < 65%
Insulin receptor
  IC50: 460 nM
[48]
  inhibition: < 65%
